These results are taken from patent US20230063449A1, “DRG-MDM2-5 FOR USE AS A NOVEL MOUSE DOUBLE MINUTE 2 (MDM2) INHIBITOR” (BAHCESEHIR UNIVERSITESI, priority 2020, published 2023).

Experiment [1] concerns MDA-MB231 cell lines. Description: MTT cell viability assay (IC50). In kind it is cell-based. As to conditions: Homo sapiens, MDA-MB-231, single dose of treatment, 10^−9 to 10^−4 M, 570 nm absorbance (FIG. 1), read-out: half-maximal inhibitory concentration (IC50). The procedure: (§1) HCT 116 colon cancer and MDA-MB231 breast cancer cell lines are used in cell culture experiments.
Cells were treated with high-glucose DMEM medium (Biosera) supplemented with 10% FBS (Gibco) and 1× penicillin/streptomycin (Multicell). The assay was designed to contain 10,000 cells for each well of 24-well cell culture plates before being treated with inhibitors.
Compound of formula I was dissolved with DMSO as 20 mM stock. 24 hours later, the solution was diluted in DMEM with 10% FBS and final concentration of vehicle DMSO was 0.5% at maximum. Therefore, the vehicle group included 0.5% DMSO concentration in experiments. Intensive cultivation of cells causes a decrease in proliferation capacity.
The MTT cell viability assay was used to detect values of half-maximal inhibitory concentration (IC50). Different concentrations of compound of formula I ranging between 10^−9 to 10^−4 M were tested on MDA-MB231 cell lines with single dose of treatment. 570 nm absorbance values were recorded and IC50 values were calculated by dose response—inhibition curves and nonlinear regression analysis on Graphpad Prism 8 software.

In experiment [2] the test system is HCT 116 colon cancer and MDA-MB231 breast cancer cell lines. Description: MTT cell proliferation inhibition analysis. In kind it is cell-based. The conditions noted are these: 100 μM; MTT at 12 h, 24 h, 48 h and 72 h; ANOVA, p<0.001 (FIG. 2). The procedure:
as §1
For proliferation inhibition analysis, cells were seeded in 24 well plates at 1×10^4 cells/well cells overnight without drug treatment. During the cell proliferation experiments, we performed five days of treatment in each cell line and repeated the experiments three times to check each experiment. No significant difference in cell viability was observed after the third day. Therefore, cells with different drug concentrations were treated for two days. After 48 hours, MTT was applied to the cells and incubated at 37° C. for 4 hours, formazan was solubilized with DMSO (Sigma-Aldrich, St. Louis, USA) and absorbance was measured at 570 nm.
Molecule concentration was 100 μM, the lower concentrations were not shown. Vehicle represents the groups treated with only %0.5 DMSO and Untreated represents no molecule treated group. Molecule responses were evaluated by cell viability which is obtained by spectrophotometric analysis of cells upon MTT treatment at 12 h, 24 h, 48 h and 72 h. […] Statistical significance in graphs was determined by comparing each treatment group with DMSO control using ANOVA testing and significance is considered as p<0.001 (FIG. 2).

Experiment [3] addresses MDM2 protein (Homo sapiens, UniProt Q00987). The conditions noted are these: compared with natural p53 peptide; cited from earlier work.

MDM2 protein, sequence (Q00987 whole entry, species assumed): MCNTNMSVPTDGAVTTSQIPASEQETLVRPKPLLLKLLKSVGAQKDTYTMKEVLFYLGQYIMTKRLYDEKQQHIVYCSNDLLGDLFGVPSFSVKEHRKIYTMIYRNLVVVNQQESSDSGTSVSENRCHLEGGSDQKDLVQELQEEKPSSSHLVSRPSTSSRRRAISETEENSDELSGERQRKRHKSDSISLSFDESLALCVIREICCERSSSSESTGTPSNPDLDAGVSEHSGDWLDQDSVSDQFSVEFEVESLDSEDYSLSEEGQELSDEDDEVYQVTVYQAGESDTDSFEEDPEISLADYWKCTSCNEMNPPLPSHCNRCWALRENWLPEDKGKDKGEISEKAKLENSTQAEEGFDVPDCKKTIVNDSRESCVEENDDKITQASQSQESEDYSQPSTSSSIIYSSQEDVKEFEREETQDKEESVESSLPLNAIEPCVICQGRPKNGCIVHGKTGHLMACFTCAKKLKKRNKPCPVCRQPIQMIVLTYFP

As to `O=C(CSCc1ccccc1)NC(CC1CNc2ccccc21)C(=O)O` (stereo not drawn) [compound of formula I], the IC50 in experiment [1] was determined as 98 µM. For the same compound, the “cell viability (MTT) compared to vehicle and untreated groups” value in experiment [2] is “statistically significant difference compared to vehicle and untreated groups”.

With MI-319, the “binding affinity to MDM2 protein relative to a natural p53 peptide” value in experiment [3] is 500 fold.
